According to ChEMBL document CHEMBL6103664, “Novel Pyrimidinyl Sulfonamide Derivatives as GPR17 Modulators” (ACS Med Chem Lett, 2025):

Legend:
Assay type in all cases: ADME, Microsome
Conditions in all cases: time 55 min
[1] = Clearance in rat microsomes assessed per mg protein at 1 uM preincubated for 10 mins followed by NADPH addition and measured after 1 to 45 mins by LC-MS/MS analysis
[2] = Clearance in mouse microsomes assessed per mg protein at 1 uM preincubated for 10 mins followed by NADPH addition and measured after 1 to 45 mins by LC-MS/MS analysis
[3] = Clearance in human microsomes assessed per mg protein at 1 uM preincubated for 10 mins followed by NADPH addition and measured after 1 to 45 mins by LC-MS/MS analysis

| microsomal CLint at 1 µM [1] [µL/min/mg] | microsomal CLint at 1 µM [2] [µL/min/mg] | microsomal CLint at 1 µM [3] [µL/min/mg] | Structure (SMILES) |
| --- | --- | --- | --- |
| 32 | 12 | 10 | COc1nc(NS(=O)(=O)c2c[nH]c(-c3ncccc3F)c2)nc(OC)c1OCCF |
| 50 | 10 | 10 | COc1nc(NS(=O)(=O)c2c[nH]c(-c3nccs3)c2)nc(OC)c1OC(F)F |
| 81 | 21 | 10 | COc1nc(NS(=O)(=O)c2c[nH]c(-c3ccccc3)c2)nc(OC)c1OCC(F)F |
